# According to patent publication US11987586B1 (TAKEDA PHARMACEUTICAL COMPANY LIMITED, priority 2022, dated 2024):
# Target: T1, human OX2 receptor (Homo sapiens, UniProt O43614)
# T1 construct: expressed in transfected cells
# T1 sequence (O43614 1-444): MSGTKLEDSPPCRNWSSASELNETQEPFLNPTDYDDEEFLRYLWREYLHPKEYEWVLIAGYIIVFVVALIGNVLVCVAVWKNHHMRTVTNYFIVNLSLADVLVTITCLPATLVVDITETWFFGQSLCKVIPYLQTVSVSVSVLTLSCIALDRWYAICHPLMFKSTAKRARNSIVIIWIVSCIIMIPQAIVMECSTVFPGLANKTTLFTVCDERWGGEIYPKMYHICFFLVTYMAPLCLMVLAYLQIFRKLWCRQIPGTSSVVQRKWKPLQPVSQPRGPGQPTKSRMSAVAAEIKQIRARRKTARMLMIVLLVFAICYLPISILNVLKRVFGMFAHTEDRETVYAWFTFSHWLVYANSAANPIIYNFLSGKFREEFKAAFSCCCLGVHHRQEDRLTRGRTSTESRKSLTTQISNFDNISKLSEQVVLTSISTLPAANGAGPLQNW
# Assay: Measurement of orexin type 2 receptor agonist activity (calcium fluorescence, Fluo-4, FDSS)
# Type: cell-based
# Conditions: 3 uM test compound; CHO cells expressing human OX2 receptor; DMSO = 0%, 10 nM orexin A (human) = 100%
# Procedure: In order to obtain cell clones that stably express human orexin type 2 receptor, human orexin type 2 (residues 1-444, NCBI Reference Sequence: AK314279) was constructed in a pcDNA3.1 (+) vector (Invitrogen) to express in mammalian cells. This plasmid DNA was transfected into CHO-K1 cells by electroporation, and stable clones were obtained by limiting dilution using resistance to G418 as a selection marker.
# CHO cells in which human OX2 receptor was forcibly expressed were seeded at 10,000 cells/well into a 384-well black transparent bottom plate (BD falcon), and were incubated at 37° C., 5% CO2 for 1 day after incubation at room temperature for 30 minutes. After removing the cell plate medium, assay buffer containing calcium indicator A (HBSS (Thermo Fisher Scientific), 20 mM HEPES (Thermo Fisher Scientific), 0.1% BSA (Sigma-Aldrich), 2.5 μg/mL Fluo-4 AM (Dojin Kagaku), 0.08% Pluronic F127 (Dojin Kagaku), 1.25 mM probenecid (Dojin Kagaku)) was added at 30 μL/well. After incubation in a 5% CO2 incubator at 37° C. for 30 minutes, it was incubated at room temperature for another 30 minutes. Add 10 μL/well of the test compound diluted with assay buffer B (HBSS, 20 mM HEPES, 0.1% BSA), and use FDSS μCELL (Hamamatsu Photonics) to measure the fluorescence value every 1 second for 1 minute, and then every 2 seconds for 1 minute. It was measured for 1 minute and 40 seconds. The amount of fluorescence value when DMSO is added instead of the test compound is defined as 0%, and the amount of fluorescence value when orexin A (human) (Peptide Institute) with a final concentration of 10 nM is added is defined as 100%. The activity (%) of the test compound was calculated.
row,"OX2R agonist activity (3 uM, %) [%]",SMILES
1,96,"CS(=O)(=O)N[C@@H]1CN2C(=O)N(c3noc4cc(Cl)cc(-c5c(F)cc(F)cc5F)c34)C[C@@H]2C1(F)F [Example 25, N-{(6R,7aR)-2-[6-chloro-4-(2,4,6-trifluorophenyl)-1,2-benzoxazol-3-yl]-7,7-difluoro-3-oxohexahydro-1H-pyrrolo[1,2-c]imidazol-6-yl}methanesulfonamide]"
2,99,"CCOc1cc2onc(N3CC[C@H]4N(C[C@@H](NS(C)(=O)=O)C4(F)F)C3=O)c2c(-c2c(F)cc(F)cc2F)c1F [Example 202, N-{(4aR,6R)-2-[6-ethoxy-5-fluoro-4-(2,4,6-trifluorophenyl)-1,2-benzoxazol-3-yl]-5,5-difluoro-1-oxooctahydropyrrolo[1,2-c]pyrimidin-6-yl}methanesulfonamide]"
3,100,"CS(=O)(=O)N[C@@H]1CN2C(=O)N(c3noc4ccc(F)c(-c5c(F)cc(F)cc5F)c34)CC[C@@H]2C1(F)F [Example 241, N-{(4aR,6R)-5,5-difluoro-2-[5-fluoro-4-(2,4,6-trifluorophenyl)-1,2-benzoxazol-3-yl]-1-oxooctahydropyrrolo[1,2-c]pyrimidin-6-yl}methanesulfonamide]"
4,97,"COCS(=O)(=O)N[C@H]1C[C@H]2CN(c3noc4cccc(-c5c(F)cccc5F)c34)C(=O)N2C1 [Example 20, N-{(6S,7aS)-2-[4-(2,6-difluorophenyl)-1,2-benzoxazol-3-yl]-3-oxohexahydro-1H-pyrrolo[1,2-c]imidazol-6-yl}-1-methoxymethanesulfonamide]"
5,101,"O=C1N(c2noc3ccc(F)c(-c4c(F)cccc4F)c23)CC[C@H]2N1C[C@@H](NS(=O)(=O)C1CC1)C2(F)F [Example 280, N-{(4aR,6R)-2-[4-(2,6-difluorophenyl)-5-fluoro-1,2-benzoxazol-3-yl]-5,5-difluoro-1-oxooctahydropyrrolo[1,2-c]pyrimidin-6-yl}cyclopropanesulfonamide]"
6,92,"CCS(=O)(=O)N[C@@H]1Cn2c(cn(-c3noc4cc(COC)cc(-c5c(F)cc(F)cc5F)c34)c2=O)C1(F)F [Example 166, N-{(6R)-7,7-difluoro-2-[6-(methoxymethyl)-4-(2,4,6-trifluorophenyl)-1,2-benzoxazol-3-yl]-3-oxo-2,5,6,7-tetrahydro-3H-pyrrolo[1,2-c]imidazol-6-yl}ethanesulfonamide]"
7,107,"CS(=O)(=O)N[C@@H]1Cn2c(cn(-c3noc4cc(Cl)cc(-c5c(F)cc(F)cc5F)c34)c2=O)C1(F)F [Example 90, N-{(6R)-2-[6-chloro-4-(2,4,6-trifluorophenyl)-1,2-benzoxazol-3-yl]-7,7-difluoro-3-oxo-2,5,6,7-tetrahydro-3H-pyrrolo[1,2-c]imidazol-6-yl}methanesulfonamide]"
8,99,"CCS(=O)(=O)N[C@@H]1CN2C(=O)N(c3noc4cc(Cl)c(F)c(-c5c(F)cc(F)cc5F)c34)C[C@@H]2C1(F)F [Example 93, N-{(6R,7aR)-2-[6-chloro-5-fluoro-4-(2,4,6-trifluorophenyl)-1,2-benzoxazol-3-yl]-7,7-difluoro-3-oxohexahydro-1H-pyrrolo[1,2-c]imidazol-6-yl}ethanesulfonamide]"
9,105,"O=C1N(c2noc3cc(F)cc(-c4ncc(F)cc4F)c23)CC[C@H]2N1C[C@@H](NS(=O)(=O)C1CC1)C2(F)F [Example 318, N-{(4aR,6R)-2-[4-(3,5-difluoropyridin-2-yl)-6-fluoro-1,2-benzoxazol-3-yl]-5,5-difluoro-1-oxooctahydropyrrolo[1,2-c]pyrimidin-6-yl}cyclopropanesulfonamide]"
10,107,"O=C1N(c2noc3cc(F)c(F)c(-c4c(F)cc(F)cc4F)c23)CC[C@H]2N1C[C@@H](NS(=O)(=O)CF)C2(F)F [Example 297, N-{(4aR,6R)-2-[5,6-difluoro-4-(2,4,6-trifluorophenyl)-1,2-benzoxazol-3-yl]-5,5-difluoro-1-oxooctahydropyrrolo[1,2-c]pyrimidin-6-yl}-1-fluoromethanesulfonamide]"
11,68,"CCS(=O)(=O)N[C@@H]1CN2C(=O)N(c3noc4cccc(N5CCCCC5)c34)CC[C@@H]2C1(F)F [Example 333, N-{(4aR,6R)-5,5-difluoro-1-oxo-2-[4-(piperidin-1-yl)-1,2-benzoxazol-3-yl]octahydropyrrolo[1,2-c]pyrimidin-6-yl}ethanesulfonamide]"
12,91,"CS(=O)(=O)N[C@@H]1CN2C(=O)N(c3noc4cc(Cl)cc(-c5c(F)cccc5F)c34)C[C@@H]2C1(F)F [Example 87, N-{(6R,7aR)-2-[6-chloro-4-(2,6-difluorophenyl)-1,2-benzoxazol-3-yl]-7,7-difluoro-3-oxohexahydro-1H-pyrrolo[1,2-c]imidazol-6-yl}methanesulfonamide]"
13,100,"CS(=O)(=O)N[C@@H]1Cn2c(cn(-c3noc4cccc(-c5c(F)cccc5F)c34)c2=O)C1(F)F [Example 102, N-{(6R)-2-[4-(2,6-Difluorophenyl)-1,2-benzoxazol-3-yl]-7,7-difluoro-3-oxo-2,5,6,7-tetrahydro-3H-pyrrolo[1,2-c]imidazol-6-yl}methanesulfonamide]"
14,98,"CS(=O)(=O)N[C@@H]1CN2C(=O)N(c3noc4cc(F)cc(-c5c(F)cccc5F)c34)C[C@@H]2C1(F)F [Example 72, N-{(6R,7aR)-2-[4-(2,6-Difluorophenyl)-6-fluoro-1,2-benzoxazol-3-yl]-7,7-difluoro-3-oxohexahydro-1H-pyrrolo[1,2-c]imidazol-6-yl}methanesulfonamide]"
15,100,"CNS(=O)(=O)N[C@@H]1CN2C(=O)N(c3noc4cc(F)cc(-c5c(F)cccc5F)c34)C[C@@H]2C1(F)F [Example 310, N-{(6R,7aR)-2-[4-(2,6-difluorophenyl)-6-fluoro-1,2-benzoxazol-3-yl]-7,7-difluoro-3-oxohexahydro-1H-pyrrolo[1,2-c]imidazol-6-yl}-N′-methylsulfuric diamide]"
16,104,"Cc1cc2onc(N3CC[C@H]4N(C[C@@H](NS(=O)(=O)C5CC5)C4(F)F)C3=O)c2c(-c2c(F)cccc2F)n1 [Example 268, N-{(4aR,6R)-2-[4-(2,6-difluorophenyl)-6-methyl[1,2]oxazolo[4,5-c]pyridin-3-yl]-5,5-difluoro-1-oxooctahydropyrrolo[1,2-c]pyrimidin-6-yl}cyclopropanesulfonamide]"
17,88,"CCS(=O)(=O)N[C@H]1C[C@H]2CN(c3noc4c(Cl)ccc(-c5c(F)cccc5F)c34)C(=O)N2C1 [Example 58, N-{(6S,7aS)-2-[7-chloro-4-(2,6-difluorophenyl)-1,2-benzoxazol-3-yl]-3-oxohexahydro-1H-pyrrolo[1,2-c]imidazol-6-yl}ethanesulfonamide]"
18,109,"O=c1n(-c2noc3ccc(F)c(-c4c(F)cc(F)cc4F)c23)cc2n1C[C@@H](NS(=O)(=O)C1CC1)C2(F)F [Example 272, N-{(6R)-7,7-difluoro-2-[5-fluoro-4-(2,4,6-trifluorophenyl)-1,2-benzoxazol-3-yl]-3-oxo-2,5,6,7-tetrahydro-3H-pyrrolo[1,2-c]imidazol-6-yl}cyclopropanesulfonamide]"
19,99,"COCc1cc(-c2c(F)cccc2F)c2c(N3CC[C@H]4N(C[C@@H](NS(C)(=O)=O)C4(F)F)C3=O)noc2c1 [Example 215, N-{(4aR,6R)-2-[4-(2,6-difluorophenyl)-6-(methoxymethyl)-1,2-benzoxazol-3-yl]-5,5-difluoro-1-oxooctahydropyrrolo[1,2-c]pyrimidin-6-yl}methanesulfonamide]"
20,81,"CCS(=O)(=O)N[C@H]1C[C@H]2CN(c3noc4cccc(-c5c(F)ccc(F)c5F)c34)C(=O)N2C1 [Example 21, N-{(6S,7aS)-3-oxo-2-[4-(2,3,6-trifluorophenyl)-1,2-benzoxazol-3-yl]hexahydro-1H-pyrrolo[1,2-c]imidazol-6-yl}ethanesulfonamide]"
21,103,"CS(=O)(=O)N[C@@H]1CN2C(=O)N(c3noc4cccc(-c5c(F)cc(F)cc5F)c34)C(O)[C@@H]2C1(F)F (relative stereo) [Example 125, N-{(1R*,6R,7aR)-7,7-difluoro-1-hydroxy-3-oxo-2-[4-(2,4,6-trifluorophenyl)-1,2-benzoxazol-3-yl]hexahydro-1H-pyrrolo[1,2-c]imidazol-6-yl}methanesulfonamide]"
